Molecules are shown by their SMILES.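 Results reflect a 48-hour exposure of cells in 96-well plates to compound at five concentrations. At the GI50, growth is halved. At the TGI there is no net growth.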

What all share (test): NCI anticancer screen, dose series, 48 h
Test [1] deals with HS 578T breast.
Test [2] deals with IGROV1 ovarian.
Test [3] relates to LOX IMVI melanoma.
For test [4], the system named is MALME-3M melanoma.
The test system of test [5] is NCI/ADR-RES ovarian.
Test [6] has as its system RXF 393 renal.
Test [7] concerns SF-295 CNS.
In test [8] the test system is SF-539 CNS.
The test system of test [9] is U251 CNS.
Test [10] relates to UACC-62 melanoma.

Take `COc1ccccc1N1CCN(CCc2c[nH]c3cc4c(cc23)OCO4)CC1`: the GI50 in test [1] is 20.1 µM; in test [2], 40.2 µM; in [3], 11.6 µM; in [4], 27.9 µM; in test [5] it was 26.4 µM; in [6], 17.9 µM. The GI50 in [7] is 0.646 µM; in test [8], 20.2 µM; in [9], 32.2 µM; in test [10], 32.2 µM. Also, the TGI in [1] was 70.9 µM; in [2] it was over 100 µM; in [3] it was 35.7 µM; in [4], over 100 µM; in test [5], over 100 µM; in test [6], 92.9 µM. In addition, the TGI was 27.7 µM in test [7], over 100 µM in test [8], over 100 µM in test [9] and over 100 µM in test [10].
Take `CCN(CC)CCn1c2ccccc2c(=O)c2c(O)ccc(O)c21`: the TGI is 53.5 µM in [1]; 66.3 µM in test [2]; 36.3 µM in [3]; 49.3 µM in [4]; 44 µM in test [5]; 35.9 µM in test [6]. Besides, the TGI in test [7] amounted to 56.1 µM; in test [8] it was 50.3 µM; in test [9] it was 74.1 µM; in [10], 52.8 µM.
As to `COc1cc(/C=N/NC(=O)c2cnn3c2NC(c2ccccc2)C3)ccc1Oc1ccccc1` (stereo not given), the GI50 in [1] is 1.65 µM; in test [2] it was 1.36 µM; in test [3], 0.736 µM; in test [4] it was 1.21 µM; in test [5] it was 1.73 µM; in test [6], 1.5 µM. The GI50 was 0.522 µM in test [7], 1.03 µM in test [8], 1.31 µM in test [9] and 0.888 µM in test [10]. For the same compound, the TGI in test [1] came out at 5.22 µM; in test [2], 10.8 µM; in [3], 2.36 µM; in [4], 5.26 µM; in [5] it was 9.59 µM; in test [6], 4.53 µM. For the same compound, the TGI in test [7] amounted to 2.08 µM; in test [8], 2.51 µM; in test [9], 3.59 µM; in [10], 7.3 µM.
Take `Cc1ccc2nc(-c3ccccc3)c(N=O)n2c1`: the TGI in test [1], in test [2], in test [3], in test [4], in test [5] and in test [6] was over 100 µM throughout. The TGI was over 100 µM in test [7], 92.7 µM in test [8], over 100 µM in test [9] and 49.6 µM in test [10].
Turning to `CCN1C(=O)N(c2ccccc2)C2NC(=S)N(/N=C/C=C/c3ccccc3)C21` (stereo not given), the GI50 in test [1] is 0.339 µM; in test [2], 0.599 µM; in [3] it was 0.647 µM; in test [4], 2.83 µM; in test [5], 0.288 µM; in test [6] it was 0.345 µM. For the same compound, the GI50 is 0.276 µM in [7], 0.246 µM in test [8], 0.44 µM in test [9] and 0.197 µM in test [10]. Besides, the TGI in test [1] is over 100 µM; in [2], over 58.2 µM; in test [3] it was over 100 µM; in test [4], over 100 µM; in [5], over 100 µM; in [6], over 100 µM. Further, the TGI in test [7] is over 100 µM; in test [8], 0.854 µM; in test [9], over 100 µM; in [10], over 100 µM.
`COc1ccc(-n2cc(-c3cc(OC)c(OC)c(OC)c3)nc2SCc2ccccc2)cc1OC`: the GI50 was over 100 µM in test [1]; 31.6 µM in [2]; 59.3 µM in test [3]; over 100 µM in test [4]; over 100 µM in test [5]; 56.3 µM in [6]. Further, the GI50 in test [7] is over 100 µM; in [8], over 100 µM; in test [9], 50 µM; in test [10] it was 44.9 µM. Besides, the TGI is over 100 µM in test [1]; 88 µM in test [2]; over 100 µM in test [3]; over 100 µM in test [4]; over 100 µM in test [5]; over 100 µM in test [6]. In addition, the TGI in test [7], in test [8], in [9] and in test [10] was over 100 µM each time.
As to `Cc1cc2[nH]c(=O)c3c4ccccc4cn3c2cc1C`, the GI50 is 25 µM in test [1]; 12.3 µM in [2]; 2.04 µM in [3]; 22.2 µM in [4]; 13.6 µM in test [5]; 12 µM in [6]. For the same compound, the GI50 was 12.2 µM in test [7], 11.2 µM in test [8], 4.03 µM in [9] and 16.7 µM in [10]. Also, the TGI in [1] was determined as 59.9 µM; in test [2], 26.6 µM; in test [3], 4.02 µM; in test [4], 37.5 µM; in [5], 31.7 µM; in test [6] it was 27.4 µM. The TGI amounted to 28.5 µM in [7], 27 µM in [8], 14.2 µM in [9] and 31.9 µM in [10].
Turning to `COC(=O)CCC1CCC(c2cc(F)ccc2F)(S(=O)(=O)c2ccc(Cl)cc2)CC1` (stereo not given), the GI50 in test [1] is over 100 µM; in test [2], over 100 µM; in test [3], 91.5 µM; in test [4], 67.1 µM; in test [5], over 100 µM; in [6], 55.4 µM. Besides, the GI50 in test [7] was over 100 µM; in test [8], over 100 µM; in test [9], over 100 µM; in test [10], 69.4 µM. Also, the TGI in test [1], in test [2], in test [3], in test [4], in test [5] and in test [6] was over 100 µM each time. For the same compound, the TGI in test [7], in [8], in test [9] and in test [10] was over 100 µM each time.
